From patent US8349875B2, “Dual-acting antihypertensive agents” (Theravance, Inc., priority 2007, dated 2013)

Target: T1, human AT1 receptor (Homo sapiens, UniProt P30556)
T1 construct: expressed in transfected cells; host or cells: CHO-K1
T1 sequence (P30556 1-359): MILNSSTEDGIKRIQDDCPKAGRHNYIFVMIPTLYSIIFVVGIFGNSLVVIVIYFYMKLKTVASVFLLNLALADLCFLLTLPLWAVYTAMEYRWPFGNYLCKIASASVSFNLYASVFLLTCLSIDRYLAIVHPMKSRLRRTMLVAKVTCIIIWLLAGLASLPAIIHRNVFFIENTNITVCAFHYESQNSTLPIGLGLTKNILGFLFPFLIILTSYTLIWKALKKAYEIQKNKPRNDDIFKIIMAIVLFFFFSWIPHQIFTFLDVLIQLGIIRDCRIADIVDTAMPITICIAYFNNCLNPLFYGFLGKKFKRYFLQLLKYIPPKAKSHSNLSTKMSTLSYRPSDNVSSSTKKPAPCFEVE
Experiment: AT1 radioligand binding assay (Assay 1)
Conditions: displacement of [Eu]AngII 2 nM, membranes of CHO-K1 cells expressing human AT1 receptor
Description: These in vitro assays were used to assess the ability of test compounds to bind to the AT1 and the AT2 receptors.
Chinese hamster ovary (CHO-K1) derived cell lines stably expressing the cloned human AT1 or AT2 receptors, respectively, were grown in HAM's-F12 medium supplemented with 10% fetal bovine serum, 10 μg/ml penicillin/streptomycin, and 500 μg/ml geneticin in a 5% CO2 humidified incubator at 37° C. AT2 receptor expressing cells were grown in the additional presence of 100 nM PD123,319 (AT2 antagonist). When cultures reached 80-95% confluence, the cells were washed thoroughly in PBS and lifted with 5 mM EDTA. […]
Binding assays were performed in 96-well Acrowell filter plates (Pall Inc., cat. #5020) in a total assay volume of 100 μL, with 0.2 μg membrane protein for membranes containing the human AT1 receptor, or 2 μg membrane protein for membranes containing the human AT2 receptor in assay buffer (50 mM Tris/HCl pH 7.5 at 20° C., 5 mM MgCl2, 25 μM EDTA, 0.025% BSA). […] Non-specific binding was determined in the presence of 10 μM unlabeled angiotensin-II. […] Filter-bound [Eu]AngII was quantitated immediately on a Fusion plate reader (PerkinElmer) using Time Resolved Fluorescence (TRF). Binding data were analyzed by nonlinear regression analysis with the GraphPad Prism Software package (GraphPad Software, Inc., San Diego, Calif.) using the 3-parameter model for one-site competition. […]

In the case of “4′-2-Butyl-4-chloro-5-[((S)-2-mercaptomethyl-4-methylpentanoylamino)methyl]imidazol-1-ylmethylbiphenyl-2-carboxylic Acid [Example 1]”, the “pKi at the AT1 receptor” value is reported as “greater than 7.0”.
